# Assay results: ChEMBL document CHEMBL1914417 (Bioorg Med Chem Lett, 2011)
# Calls of active or inactive are those of the source. The calls are words filed in the database; no cut-off is given here.
# Key:
# [1] = AUC in rat at 1 mg/kg, iv; format: ADME, organism-based; design: dose 1 mg/kg, route intravenous; conditions: plasma
# [2] = Potentiation of NMDA receptor-induced current in hippocampal CA1 pyramidal cells at 30 uM; format: tissue-based; conditions: Hippocampus
# Plasma [3] = test: Fraction unbound in rat plasma; format: ADME, cell-free
# hERG (KCNH2) = hERG (KCNH2) (Homo sapiens, UniProt Q12809); test: Inhibition of human ERG at 10 uM
# hERG (KCNH2), sequence (Q12809 whole entry): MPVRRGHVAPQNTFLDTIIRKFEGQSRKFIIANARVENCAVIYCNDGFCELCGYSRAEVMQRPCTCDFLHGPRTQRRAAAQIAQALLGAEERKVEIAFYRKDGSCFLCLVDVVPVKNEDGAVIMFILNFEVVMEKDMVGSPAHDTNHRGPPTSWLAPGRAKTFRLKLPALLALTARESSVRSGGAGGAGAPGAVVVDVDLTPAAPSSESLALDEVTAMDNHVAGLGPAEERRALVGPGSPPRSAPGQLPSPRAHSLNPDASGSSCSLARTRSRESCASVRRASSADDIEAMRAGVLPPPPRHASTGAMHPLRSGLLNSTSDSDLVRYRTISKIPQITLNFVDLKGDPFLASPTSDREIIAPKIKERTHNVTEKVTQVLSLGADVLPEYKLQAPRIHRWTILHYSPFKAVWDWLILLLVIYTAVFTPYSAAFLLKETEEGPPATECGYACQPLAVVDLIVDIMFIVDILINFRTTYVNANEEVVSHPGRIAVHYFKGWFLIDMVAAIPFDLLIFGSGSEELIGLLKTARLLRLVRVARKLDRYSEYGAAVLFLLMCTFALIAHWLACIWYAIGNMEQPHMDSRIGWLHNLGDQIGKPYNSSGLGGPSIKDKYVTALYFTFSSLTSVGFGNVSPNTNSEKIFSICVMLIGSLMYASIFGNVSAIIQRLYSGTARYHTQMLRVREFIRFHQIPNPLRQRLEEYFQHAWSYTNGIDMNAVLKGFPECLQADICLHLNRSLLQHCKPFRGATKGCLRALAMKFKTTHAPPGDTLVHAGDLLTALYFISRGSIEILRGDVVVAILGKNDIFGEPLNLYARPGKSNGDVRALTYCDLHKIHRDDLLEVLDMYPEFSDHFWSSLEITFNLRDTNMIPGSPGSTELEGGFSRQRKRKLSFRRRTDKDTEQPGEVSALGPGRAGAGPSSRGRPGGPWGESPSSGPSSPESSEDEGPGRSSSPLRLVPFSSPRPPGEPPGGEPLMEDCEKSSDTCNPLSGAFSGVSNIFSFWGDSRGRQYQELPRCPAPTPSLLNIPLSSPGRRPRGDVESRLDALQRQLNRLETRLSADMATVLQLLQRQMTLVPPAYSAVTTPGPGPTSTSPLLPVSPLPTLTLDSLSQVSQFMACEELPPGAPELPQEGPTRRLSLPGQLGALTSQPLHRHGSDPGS
# Plasma [4] = test: Fraction unbound in human plasma; format: ADME, cell-free
# Cytochrome P450 1A2 = biological target: T1, Cytochrome P450 1A2 (Homo sapiens, UniProt P05177); test: Inhibition of CYP1A2; format: ADME
# T1 sequence (P05177 whole entry): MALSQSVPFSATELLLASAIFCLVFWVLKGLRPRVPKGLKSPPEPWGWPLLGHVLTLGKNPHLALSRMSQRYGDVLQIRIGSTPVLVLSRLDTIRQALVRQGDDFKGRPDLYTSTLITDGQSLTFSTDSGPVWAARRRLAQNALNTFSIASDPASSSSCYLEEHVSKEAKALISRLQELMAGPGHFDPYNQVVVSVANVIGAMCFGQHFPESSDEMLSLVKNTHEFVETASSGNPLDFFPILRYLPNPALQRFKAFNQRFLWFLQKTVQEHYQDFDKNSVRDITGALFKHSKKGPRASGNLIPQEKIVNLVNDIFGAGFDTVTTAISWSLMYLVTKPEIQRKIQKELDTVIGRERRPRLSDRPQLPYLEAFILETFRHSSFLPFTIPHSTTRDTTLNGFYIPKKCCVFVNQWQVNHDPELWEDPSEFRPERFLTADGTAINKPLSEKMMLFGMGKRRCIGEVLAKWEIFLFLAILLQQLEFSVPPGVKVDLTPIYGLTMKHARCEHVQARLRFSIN
smiles,measurement,setting,value
CCOC(=O)N1CCC(N2CCC[C@@H](NC(=O)c3ccccc3C)C2)CC1,AUC,[1],1100 ng·h/mL
same,Activity,[2],Active
same,Fu,Plasma [3],14.9%
same,inhibition at 10 µM,hERG (KCNH2),22%
same,Fu,Plasma [4],5.8%
same,IC50,Cytochrome P450 1A2,> 25 µM
